Results: patent US7262212B2, “2,3-dihydro-6-nitroimidazo[2,1-b]oxazoles” (Otsuka Pharmaceutical Co., Ltd., priority 2002, dated 2007)
≈ marks a conversion by molar mass, not a printed value.

Experiments:
[1] = test system: Mycobacterium tuberculosis (H37Rv strain); details: cited from earlier work
[2] = test system: M. fortuitum; details: used at 250 μg/ml or less; cited from earlier work
[3] = test system: M. avium; details: used at 250 μg/ml or less; cited from earlier work
[4] = test system: M. intracellulare; details: used at 250 μg/ml or less; cited from earlier work
[5] = test system: Mycobacterium tuberculosis (M. tuberculosis H37Rv); assay: Antimicrobial assay (agar dilution method), minimal inhibitory concentration; format: cell-based; details: 336 h, 7H11 agar medium, approximately 10^6 CFU/ml, 5 μl inoculated, 37° C. for 14 days

SMILES	melting point	further results
CCC1Cn2cc([N+](=O)[O-])nc2O1 (stereo not drawn) [CGI-17341]	–	bactericidal action [1]: has a bactericidal action; activity [2]: does not have the activity; activity [3]: does not have the activity; activity [4]: does not have the activity
CC(C)(C)OC(=O)NC1CCN(C[C@@]2(C)Cn3cc([N+](=O)[O-])nc3O2)CC1	158.5 to 160.7 °C	–
C[C@]1(CN2CCN(c3ccc(OC(F)(F)F)cc3)CC2)Cn2cc([N+](=O)[O-])nc2O1 [Example 397, (S)-2-[4-(4-trifluoromethoxyphenyl)-piperazin-1-ylmethyl]-2-methyl-6-nitro-2,3-dihydroimidazo[2,1-b]oxazole]	–	MIC [5]: 0.024 µg/mL (≈ 0.0562 µM)
C[C@]1(CN2CCN(C(=O)N3CCC(c4ccc(C(F)(F)F)cc4)CC3)CC2)Cn2cc([N+](=O)[O-])nc2O1	179.1 to 181.9 °C	–

Further lines, with some results ahead:

melting point	SMILES	further results
249 to 252 °C (dec.)	O=C(Nc1ccc(Cl)cc1)N1CCC2(CC1)Cn1cc([N+](=O)[O-])nc1O2	–
107.9 to 109.3 °C	CC1(COCc2ccc(Oc3ccc(OC(F)(F)F)cc3)cc2)Cn2cc([N+](=O)[O-])nc2O1 (stereo not drawn)	–
153 to 155.3 °C	C[C@]1(CN2CCc3ccccc3C2)Cn2cc([N+](=O)[O-])nc2O1	–
183 to 183.5 °C	O=[N+]([O-])c1cn2c(n1)O[C@@H](CN1CCN(c3ccc(Cl)cc3)CC1)C2	–
165 to 167 °C	CC1(N2CCC(C(=O)c3ccc(OC(F)(F)F)cc3)CC2)Cn2cc([N+](=O)[O-])nc2O1 (stereo not drawn)	–
